Laboratory results published in PMC6079455, “Discovery of Novel Caeridins from the Skin Secretion of the Australian White's Tree Frog, Litoria caerulea” (International Journal of Genomics, 2018).
Ends that are not written are not given here.

Legend:
rat ileum smooth muscle = test: Rat ileum smooth muscle test; settings: 10^−11 to 10^−6 M
Experimental: Female Wistar rats (250–300 g) were euthanized by CO2 asphyxiation followed by cervical dislocation under appropriate Home Office (UK) animal licenses. Full urinary bladder and ileum were carefully removed from the abdomen, then placed in cold Kreb's solution (118 mM NaCl, 4.7 mM KCl, 25 mM NaHCO3, 1.15 mM NaH2PO4, 2.5 mM CaCl2, 1.1 mM MgCl2, and 5.6 mM glucose), equilibrated with a carbogen mixture (95% O2, 5% CO2). The prepared smooth muscles linked with transducers were placed in 2 ml capacity organ baths with Kreb's solution flowing through at 2 ml/min and maintained at 37°C with constant bubbling of carbogen gas mixture (95% O2, […]) and equilibrated for 1 h prior to analysis. Then the viability of these smooth muscle preparations was tested by 60 mM KCl. Caeridins were tested at sequential molar concentrations in the range from 10^−6 M to 10^−11 M. Dose-response curves were depicted for each Caeridin on individual smooth muscle preparations (n = 5). Changes in tension of the smooth muscle preparations were detected by pressure transducers connected to a PowerLab System (ADInstruments Pty Ltd.). Data were recorded and calculated to obtain the means of responses and standard error of means (SEM). The dose-response curve of each Caeridin was established using best-fit algorithms through the data analysis package provided by GraphPad Prism (Version 6.0; GraphPad Software Inc., San Diego, CA, USA), and the comparative EC50 value for each peptide was depicted.

S. aureus = test: Membrane permeability on S. aureus (SYTOX Green); format: cell-based, Staphylococcus aureus; settings: 2 h, 37°C, 1 × 10^8 CFU/ml, relative to 70% isopropanol
Experimental: The cell membrane permeability of S. aureus was tested with SYTOX Green Nucleic Acid Stain (Life Technologies, Carlsbad, CA, USA). The log-phase S. aureus was pelleted and suspended in 5% TSB in 0.85% NaCl solution to achieve 1 × 10^8 CFU/ml cells which was then treated with peptide solutions at 37°C for 2 h. The maximum membrane-compromised S. aureus was produced by 70% isopropanol treatment. Subsequently, cells were mixed with 5 μM SYTOX Green stain and incubated in the dark for 10 min. The fluorescence was measured in a 37°C Synergy HT plate reader (Biolise BioTek ELx808, Winooski, VT, USA) at excitation and emission wavelengths of 480 nm and 528 nm, respectively. The membrane permeability was calculated as (1) Membrane permeability%=F−F0/F1−F0×100%, where F represents the processed fluorescence intensity with peptide treatments, F0 represents the processed fluorescence intensity of untreated S. aureus, and F1 represents the processed fluorescence intensity in the maximum membrane-compromised S. aureus (70% isopropanol-treated). The fluorescence intensities of background were subtracted prior to calculation.

E. coli = test: Membrane permeability on E. coli (ONPG / β-galactosidase); format: cell-based, Escherichia coli; settings: ONPG hydrolysis, absorbance 420 nm, 0-30 min, 37°C, 1 × 10^8 CFU/ml, PBS pH 7.4
Experimental: The membrane permeabilsation of E.coli was determined by measuring the release of β-galactosidase activity from E. coli into the culture medium with ONPG as the substrate. The log-phase E. coli was grown in MHB medium containing 2% lactose at 37°C, and the cells were pelleted. The cell pellets were suspended in 10 mM PBS (pH 7.4) containing 1.5 mM ONPG and diluted to 1 × 10^8 CFU/ml. Aliquots of cells were incubated with different concentrations of peptides at 37°C. Permeabilisation was measured at 420 nm every 2 min from 0 to 30 min, which reflects ONPG influx into the cells working as an indicator of the permeability of the tested peptides.

[1] = system: human microvascular endothelial cell line HMEC-1; test: Membrane permeabilisation of HMEC-1 (LDH release); format: cell-based; settings: 24 h; for LDH release from HMEC-1: relative to lysis buffer
Experimental: The membrane permeabilisation of the human microvascular endothelial cell line, HMEC-1, was evaluated using the Pierce LDH Cytotoxicity Assay Kit (Thermo Fisher Scientific, San Francisco, CA, USA). HMEC-1 cells were cultured in MCDB-131 medium (Life Technology, Paisley, UK) with 10% FBS, 10 ng/ml epidermal growth factor (EGF) (Life Technology, Paisley, UK), 10 mM L-glutamine (Life Technology, Paisley, UK), and 1% penicillin-streptomycin (Sigma-Aldrich, St. Louise, MO, USA), at 37°C under 5% CO2. Cells were seeded in a 96-well plate at 5000 cells per well and cultured overnight to 80% confluency. Then, the cells were treated with different peptide solutions of gradient concentrations from 10^−7 M to 10^−4 M for 24 h at 37°C, 5% CO2, and H2O-treated cells were made as the spontaneous LDH release control. Lysis buffer was added to cells and incubated for 45 min at 37°C, 5% CO2, to produce the lysis buffer-treated cells which were referred to as maximum LDH release control. Then 50 μl of each sample supernatant was transferred to a 96-well flat-bottom plate in triplicate wells, to which 50 μl of reaction mixture was added, incubated, and protected from light at room temperature for 30 min. After addition of 50 μl Stop Solution to each sample well and removal of bubbles present in sample wells, the absorbance at 490 nm and 680 nm was measured. The absorbance values at 680 nm were subtracted from the absorbance values at 490 nm before calculation of the level of LDH release (cytotoxicity). The level of LDH release was calculated as (2) LDH release %=L−L0/L1−L0×100%, where L refers to sample-treated LDH activity, L0 to spontaneous (H2O-treated) LDH activity, and L1 to maximum (lysis buffer-treated) LDH activity.
Data analysis was performed using one-way analysis of variance followed by Dunnett's multiple comparison tests with maximum LDH release control in GraphPad Prism (Version 6.0; GraphPad Software Inc., San Diego, CA, USA).

horse erythrocytes = test: Haemolytic test; format: cell-based; settings: 32 μM, horse red blood cells, 37°C, 2 h, relative to 1% Triton X-100
Experimental: The haemolysis of Caeridins was tested on prepared defrinated horse red blood cells (TCS Biosciences Ltd., Buckingham, UK) by incubating equal volumes of peptide solutions with erythrocyte suspensions at 37°C for 2 H. Maximum haemolysis control was included by incubating equal volumes of 1% Triton X-100 (Sigma-Aldrich, St. Louis, MO, USA) with erythrocyte suspensions. Lysis of erythrocytes was detected by the measurement of supernatant absorbance at a wavelength of 550 nm using a Synergy HT plate reader (Biolise BioTek ELx808, Winooski, VT, USA). The level of haemolysis was as calculated as (3) Haemolysis %=A−A0/A1−A0×100%, where A represents the absorbance with peptide treatments, A0 represents the average absorbance in untreated erythrocytes, and A1 represents the average absorbance in the maximum haemolysis control (1% Triton X-100-treated).

GLFDIVGKLLGGLGL-NH2 [Caeridin-a1]
smooth muscle activity (rat ileum) (rat ileum smooth muscle): did not show any smooth muscle activities | membrane permeability of S. aureus at MBC (S. aureus; peptide at its MBC): massively compromised | membrane permeability of S. aureus at MIC (S. aureus; peptide at its MIC): remained intact | membrane permeabilisation of E. coli at MIC and MBC (E. coli): induced inner membrane permeabilisation within 30 min | LDH release from HMEC-1 ([1]; 10 μM): approximately 10% | LDH release from HMEC-1 ([1]; 100 μM): about 50% | cytotoxicity to HMEC-1 cells ([1]; 100 μM, LDH release): significant cytotoxicity | haemolysis (horse erythrocytes): 18%
